# Measurements from ChEMBL document CHEMBL1201862, “PubChem BioAssay data set” (2004).
#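 Test compounds were applied to cells in 96-well plates for 48 hours at 5 doses. GI50 marks 50% less growth.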 The source made the active and inactive calls. No stated cut-off is given here; in the data, active = GI50 up to about 1.1 µM and inactive = higher.
# Key:
# Assay in all cases: DTP human tumour cell line panel, 48 h
# [1] = system: NCI-H522
# [2] = system: HCT-15
# [3] = system: MDA-MB-435
# [4] = system: Hs-578T
# [5] = system: Malme-3M
# [6] = system: UO-31
# [7] = system: OVCAR-3
# [8] = system: K562
# [9] = system: NCI/ADR-RES
# [10] = system: HCT-116
# [11] = system: MDA-MB-231
# [12] = system: HT-29
# [13] = system: CAKI-1
# [14] = system: U-251
# [15] = system: LOX IMVI
# [16] = system: MOLT-4
# [17] = system: HL-60
# [18] = system: KM12
# [19] = system: 786-0
# [20] = system: PC-3
# [21] = system: HOP-92
# [22] = system: RXF 393
# [23] = system: MDA-N
# [24] = system: SW-620
# [25] = system: UACC-62
# [26] = system: HOP-62
# [27] = system: OVCAR-4
# [28] = system: RPMI-8226
# [29] = system: SNB-19
# [30] = system: NCI-H226
# [31] = system: A549
# [32] = system: SF-539
# [33] = system: OVCAR-8
# [34] = system: NCI-H460
# [35] = system: SF-295
# [36] = system: EKVX
# [37] = system: IGROV-1
# [38] = system: HCC 2998
# [39] = system: SF-268
# [40] = system: OVCAR-5
# [41] = system: DU-145
# [42] = system: CCRF-CEM
# [43] = system: SR
# [44] = system: M14
# [45] = system: COLO 205
# [46] = system: SNB-75
# [47] = system: SN12C
# [48] = system: MCF7
# [49] = system: ACHN
# [50] = system: BT-549
# [51] = system: SK-OV-3
# [52] = system: A498
# [53] = system: TK-10
# [54] = system: NCI-H23
# [55] = system: SK-MEL-5
# [56] = system: UACC-257
# [57] = system: T47D
# [58] = system: SK-MEL-2
# [59] = system: SK-MEL-28
smiles,measurement,setting,value
Cc1ccc2c(O)cc(-c3sccc3C)nc2n1,GI50,[1],0.296 µM (active)
same,GI50,[2],0.406 µM
same,GI50,[3],0.131 µM (active)
same,GI50,[4],0.794 µM (active)
same,GI50,[5],0.463 µM (active)
same,GI50,[6],1.52 µM (inactive)
same,GI50,[7],0.653 µM (active)
same,GI50,[8],427 nM (active)
same,GI50,[9],0.326 µM (active)
same,GI50,[10],0.452 µM (active)
same,GI50,[11],2.48 µM (inactive)
same,GI50,[12],1.33 µM (inactive)
same,GI50,[13],0.792 µM (active)
same,GI50,[14],0.832 µM (active)
same,GI50,[15],0.723 µM (active)
same,GI50,[16],0.486 µM (active)
same,GI50,[17],0.174 µM (active)
same,GI50,[18],0.719 µM (active)
same,GI50,[19],0.711 µM (active)
same,GI50,[20],0.426 µM (active)
same,GI50,[21],> 36.8 µM (inactive)
same,GI50,[22],1.31 µM (inactive)
same,GI50,[23],106 nM (active)
same,GI50,[24],0.264 µM (active)
same,GI50,[25],0.9 µM (active)
same,GI50,[26],2.1 µM (inactive)
same,GI50,[27],9.79 µM (inactive)
same,GI50,[28],0.444 µM (active)
same,GI50,[29],0.78 µM (active)
same,GI50,[30],1.38 µM (inactive)
same,GI50,[31],0.612 µM (active)
same,GI50,[32],0.474 µM (active)
same,GI50,[33],1.99 µM (inactive)
same,GI50,[34],0.44 µM (active)
same,GI50,[35],0.497 µM (active)
same,GI50,[36],4.43 µM (inactive)
same,GI50,[37],0.625 µM (active)
same,GI50,[38],1.02 µM (active)
same,GI50,[39],1.86 µM (inactive)
same,GI50,[40],1.67 µM (inactive)
same,GI50,[41],2.62 µM (inactive)
same,GI50,[42],0.635 µM (active)
same,GI50,[43],122 nM (active)
same,GI50,[44],0.438 µM (active)
same,GI50,[45],0.37 µM (active)
same,GI50,[46],726 nM (active)
same,GI50,[47],1.67 µM (inactive)
same,GI50,[48],0.315 µM (active)
same,GI50,[49],1.1 µM (active)
same,GI50,[50],4.27 µM (inactive)
same,GI50,[51],1.45 µM (inactive)
same,GI50,[52],0.562 µM (active)
same,GI50,[53],> 24.2 µM (inactive)
same,GI50,[54],0.337 µM (active)
same,GI50,[55],0.266 µM (active)
CCCNC(=O)OCc1c(COC(=O)NCCC)c(-c2ccc(Cl)c(Cl)c2)n2c1CCC2,GI50,[1],1.16 µM (inactive)
same,GI50,[2],4.18 µM
same,GI50,[3],11.5 µM (inactive)
same,GI50,[4],6.56 µM (inactive)
same,GI50,[5],2.94 µM (inactive)
same,GI50,[6],2.86 µM (inactive)
same,GI50,[7],14 µM (inactive)
same,GI50,[8],4310 nM (inactive)
same,GI50,[9],3.89 µM (inactive)
same,GI50,[56],4.79 µM (inactive)
same,GI50,[10],5.09 µM (inactive)
same,GI50,[11],4.84 µM (inactive)
same,GI50,[12],4.12 µM (inactive)
same,GI50,[13],1.72 µM (inactive)
same,GI50,[14],4.98 µM (inactive)
same,GI50,[15],3.78 µM (inactive)
same,GI50,[16],3.11 µM (inactive)
same,GI50,[17],2.64 µM (inactive)
same,GI50,[18],10.7 µM (inactive)
same,GI50,[19],2.82 µM (inactive)
same,GI50,[20],8.59 µM (inactive)
same,GI50,[21],2.52 µM (inactive)
same,GI50,[22],2.35 µM (inactive)
same,GI50,[24],4.63 µM (inactive)
same,GI50,[25],2.8 µM (inactive)
same,GI50,[26],6.01 µM (inactive)
same,GI50,[28],5.02 µM (inactive)
same,GI50,[29],8.93 µM (inactive)
same,GI50,[30],1.58 µM (inactive)
same,GI50,[31],6.61 µM (inactive)
same,GI50,[32],3 µM (inactive)
same,GI50,[57],11.4 µM (inactive)
same,GI50,[33],4.36 µM (inactive)
same,GI50,[34],3.57 µM (inactive)
same,GI50,[35],2.95 µM (inactive)
same,GI50,[36],11.2 µM (inactive)
same,GI50,[37],1.05 µM (active)
same,GI50,[39],4.33 µM (inactive)
same,GI50,[40],3.76 µM (inactive)
same,GI50,[41],7 µM (inactive)
same,GI50,[42],1.98 µM (inactive)
same,GI50,[44],10.6 µM (inactive)
same,GI50,[45],3.64 µM (inactive)
same,GI50,[47],3.11 µM (inactive)
same,GI50,[48],5.75 µM (inactive)
same,GI50,[49],2.01 µM (inactive)
same,GI50,[50],4.07 µM (inactive)
same,GI50,[51],2.81 µM (inactive)
same,GI50,[52],1.26 µM (inactive)
same,GI50,[53],1.86 µM (inactive)
same,GI50,[54],5.93 µM (inactive)
same,GI50,[55],5.98 µM (inactive)
COc1ccc(/C=C/C(=N/NC(=O)N/N=C(/C=C/c2ccc(OC)cc2)C(C)(C)CN2CCCCC2)C(C)(C)CN2CCCCC2)cc1,GI50,[1],2.07 µM (inactive)
same,GI50,[2],3.12 µM
same,GI50,[4],1.87 µM (inactive)
same,GI50,[5],1.92 µM (inactive)
same,GI50,[6],1.58 µM (inactive)
same,GI50,[7],1.87 µM (inactive)
same,GI50,[8],467 nM (active)
same,GI50,[9],1.97 µM (inactive)
same,GI50,[56],1.86 µM (inactive)
same,GI50,[10],1.33 µM (inactive)
same,GI50,[12],1.58 µM (inactive)
same,GI50,[13],1.83 µM (inactive)
same,GI50,[58],1.62 µM (inactive)
same,GI50,[14],1.85 µM (inactive)
same,GI50,[59],1.56 µM (inactive)
same,GI50,[15],1.37 µM (inactive)
same,GI50,[16],1.71 µM (inactive)
same,GI50,[17],1.5 µM (inactive)
same,GI50,[18],1.81 µM (inactive)
same,GI50,[19],1.59 µM (inactive)
same,GI50,[20],2.28 µM (inactive)
same,GI50,[21],1.47 µM (inactive)
same,GI50,[22],1.35 µM (inactive)
same,GI50,[23],1640 nM (inactive)
same,GI50,[24],2.11 µM (inactive)
same,GI50,[26],2.15 µM (inactive)
same,GI50,[27],1.88 µM (inactive)
same,GI50,[28],1.69 µM (inactive)
same,GI50,[29],2.61 µM (inactive)
same,GI50,[30],1.5 µM (inactive)
same,GI50,[31],1.86 µM (inactive)
same,GI50,[32],2.28 µM (inactive)
same,GI50,[57],1.99 µM (inactive)
same,GI50,[33],1.8 µM (inactive)
same,GI50,[34],1.65 µM (inactive)
same,GI50,[35],1.87 µM (inactive)
same,GI50,[36],2.8 µM (inactive)
same,GI50,[37],2.27 µM (inactive)
same,GI50,[38],1.74 µM (inactive)
same,GI50,[40],2.96 µM (inactive)
same,GI50,[41],> 10 µM (inactive)
same,GI50,[42],1.27 µM (inactive)
same,GI50,[43],234 nM (active)
same,GI50,[44],1.71 µM (inactive)
same,GI50,[45],1.65 µM (inactive)
same,GI50,[46],1370 nM (inactive)
same,GI50,[47],2.7 µM (inactive)
same,GI50,[48],2.35 µM (inactive)
same,GI50,[49],1.75 µM (inactive)
same,GI50,[50],1.98 µM (inactive)
same,GI50,[51],1.98 µM (inactive)
same,GI50,[52],2.22 µM (inactive)
same,GI50,[53],2.01 µM (inactive)
same,GI50,[54],3.03 µM (inactive)
same,GI50,[55],1.63 µM (inactive)
C/C(=C\CO)CC/C=C(\C)CNc1ccc([N+](=O)[O-])cc1,GI50,[1],18 µM (inactive)
same,GI50,[2],30.1 µM
same,GI50,[3],28.6 µM (inactive)
same,GI50,[4],16.6 µM (inactive)
same,GI50,[5],8.2 µM (inactive)
same,GI50,[6],7.98 µM (inactive)
same,GI50,[7],17.4 µM (inactive)
same,GI50,[8],15000 nM (inactive)
same,GI50,[9],22 µM (inactive)
same,GI50,[56],21.6 µM (inactive)
same,GI50,[10],93.5 µM (inactive)
same,GI50,[11],26.2 µM (inactive)
same,GI50,[12],27.4 µM (inactive)
same,GI50,[13],80.5 µM (inactive)
same,GI50,[58],20.4 µM (inactive)
same,GI50,[14],23.7 µM (inactive)
same,GI50,[59],28.4 µM (inactive)
same,GI50,[15],22.3 µM (inactive)
same,GI50,[16],1.93 µM (inactive)
same,GI50,[17],19.6 µM (inactive)
same,GI50,[18],16.1 µM (inactive)
same,GI50,[19],> 100 µM (inactive)
same,GI50,[20],18 µM (inactive)
same,GI50,[22],> 100 µM (inactive)
same,GI50,[24],56.1 µM (inactive)
same,GI50,[25],27.5 µM (inactive)
same,GI50,[26],> 100 µM (inactive)
same,GI50,[27],2.98 µM (inactive)
same,GI50,[29],40.3 µM (inactive)
same,GI50,[30],96.6 µM (inactive)
same,GI50,[31],34.2 µM (inactive)
same,GI50,[32],28.6 µM (inactive)
same,GI50,[57],11.6 µM (inactive)
same,GI50,[33],30.8 µM (inactive)
same,GI50,[34],> 100 µM (inactive)
same,GI50,[35],32.5 µM (inactive)
same,GI50,[36],24.8 µM (inactive)
same,GI50,[37],28.8 µM (inactive)
same,GI50,[39],63.5 µM (inactive)
same,GI50,[40],41.7 µM (inactive)
same,GI50,[41],50.4 µM (inactive)
same,GI50,[43],4540 nM (inactive)
same,GI50,[44],62.1 µM (inactive)
same,GI50,[45],36.6 µM (inactive)
same,GI50,[46],21.9 nM (active)
same,GI50,[47],60.8 µM (inactive)
same,GI50,[48],40.6 µM (inactive)
same,GI50,[49],80.4 µM (inactive)
same,GI50,[50],10.1 µM (inactive)
same,GI50,[51],> 100 µM (inactive)
same,GI50,[53],7.67 µM (inactive)
same,GI50,[54],2.57 µM (inactive)
same,GI50,[55],12 µM (inactive)
